Reference: patent publication US10189810B2, “Pyrazolyl-substituted pyridone compounds as serine protease inhibitors” (VERSEON CORPORATION, priority 2014, dated 2019)
pIC50: −log10 of the molar value.

Tests used:
Human KLKB1 protein = biological target: T1, Human KLKB1 protein (Homo sapiens, UniProt P03952); experiment: KLKB1 kallikrein protease inhibition assay (chromogenic substrate S-2302); format: biochemical; details: 3 nM KLKB1, 250 μM S-2302, 10 min pre-incubation, RT, read at 405 nm
T1 construct: purchased Enzyme Research Labs
Experimental: The KLKB1 kallikrein activity reported herein (e.g., Table A) was obtained as follows. Human KLKB1 protein was obtained from Enzyme Research Labs. The chromogenic substrate S-2302 was obtained from DiaPharma. KLKB1 was assayed in buffer containing 0.05 M Tris (pH 7.4), 0.01 M NaCl and 0.2% w/v PEG-8000. The final concentration of enzyme used was 3 nM KLKB1. The final concentration of substrate used was 250 μM S-2302 for KLKB1. All assays were performed in 96-well microtiter plates at room temperature (RT). […] The plate was read at 10 minutes after substrate addition. The IC50 was calculated by plotting the percent (%) inhibition against compound concentration and fitting the data to a constrained four parameter sigmoidal curve, as known in the art.

Human thrombin = biological target: T2, Human thrombin (Homo sapiens, UniProt P00734); experiment: thrombin protease inhibition assay (chromogenic substrate S-2238); format: biochemical; details: 3 nM thrombin, 125 μM S-2238, 10 min pre-incubation, RT, read at 405 nm
T2 construct: Thrombin (fIIa, the active form of prothrombin) is another serine protease; purchased Haematologic Technologies Inc
Experimental: The thrombin activity reported herein (e.g., Table A) was obtained as follows. […] Thrombin was assayed in buffer containing 0.05 M Tris (pH 7.4), 0.015 M NaCl and 0.01% PEG-8000. The final concentration of enzyme used was 3 nM thrombin. […] All assays were performed in 96-well microtiter plates at room temperature (RT). […] Inhibitor IC50 values were determined by adding test compound as ten point, three-fold serial dilutions in buffer solution, as known in the art. The plate was read at 10 minutes after substrate addition. The IC50 was calculated by plotting the percent (%) inhibition against compound concentration and fitting the data to a constrained four parameter sigmoidal curve, as known in the art.

malignant breast tumors = details: treated mice, cited from earlier work

T1 sequence (P03952 391-638 limits assumed): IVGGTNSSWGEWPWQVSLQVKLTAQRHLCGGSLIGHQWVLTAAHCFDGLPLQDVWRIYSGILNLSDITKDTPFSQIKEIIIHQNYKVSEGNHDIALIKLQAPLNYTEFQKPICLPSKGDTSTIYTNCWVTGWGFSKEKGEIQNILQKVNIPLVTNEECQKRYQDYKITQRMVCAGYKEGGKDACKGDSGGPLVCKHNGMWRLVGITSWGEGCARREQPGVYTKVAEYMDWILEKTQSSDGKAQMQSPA
T1 sequence (P03952 20-390 partner limits assumed): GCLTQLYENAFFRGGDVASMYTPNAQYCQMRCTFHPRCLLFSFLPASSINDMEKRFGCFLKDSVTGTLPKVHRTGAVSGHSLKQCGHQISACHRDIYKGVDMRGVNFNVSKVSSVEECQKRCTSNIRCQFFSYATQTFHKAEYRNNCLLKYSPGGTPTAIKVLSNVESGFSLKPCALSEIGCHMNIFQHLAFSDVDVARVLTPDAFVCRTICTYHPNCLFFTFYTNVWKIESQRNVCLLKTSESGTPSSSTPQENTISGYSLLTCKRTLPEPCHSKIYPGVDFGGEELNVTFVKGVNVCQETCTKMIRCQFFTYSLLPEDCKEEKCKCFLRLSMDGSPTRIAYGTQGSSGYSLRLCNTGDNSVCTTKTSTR

pIC50 (Human KLKB1 protein) | pIC50 (Human thrombin) | Structure (SMILES) | reduction in tumor volume (malignant breast tumors; at 4 weeks) [%] | reduced tumor cells in the blood and liver micrometastases (malignant breast tumors)
4.00 to 5.00 | 5.00 to 6.00 | CC(C)(C)C(=O)n1nc(-c2c[nH]c(=O)c(-c3ccccc3)c2)cc1NCc1ccc(Cl)s1 [Entry 35, 5-(5-[(5-chlorothiophen-2-yl)methyl]amino-1-(2,2-dimethylpropanoyl)-1H-pyrazol-3-yl)-3-phenyl-1,2-dihydropyridin-2-one] |  | 
4.00 to 5.00 | < 4.00 | O=c1[nH]cc(Br)cc1-c1cc(NCc2ccc(Cl)s2)[nH]n1 [Entry 42, 5-bromo-3-(5-[(5-chlorothiophen-2-yl)methyl]amino-1H-pyrazol-3-yl)-1,2-dihydropyridin-2-one] |  | 
6.00 to 7.00 | > 7.00 | O=C(c1ccoc1)n1nc(-c2ccn(CCN3CCOCC3)c(=O)c2)cc1NCc1ccc(Cl)s1 [Entry 21, 4-(5-[(5-chlorothiophen-2-yl)methyl]amino-1-(furan-3-carbonyl)-1H-pyrazol-3-yl)-1-[2-(morpholin-4-yl)ethyl]-1,2-dihydropyridin-2-one] |  | 
< 4.00 | 5.00 to 6.00 | CC(C)(C)C(=O)n1nc(-c2cc(N3CCOCC3)[nH]c(=O)c2)cc1NCc1ccc(Cl)s1 [Entry 13, 4-(5-[(5-chlorothiophen-2-yl)methyl]amino-1-(2,2-dimethylpropanoyl)-1H-pyrazol-3-yl)-6-(morpholin-4-yl)-1,2-dihydropyridin-2-one] |  | 
5.00 to 6.00 | > 7.00 | COCCn1ccc(-c2cc(NCc3ccc(Cl)s3)n(C(=O)C(C)(C)C)n2)cc1=O [Entry 9, 4-(5-[(5-chlorothiophen-2-yl)methyl]amino-1-(2,2-dimethylpropanoyl)-1H-pyrazol-3-yl)-1-(2-methoxyethyl)-1,2-dihydropyridin-2-one] |  | 
6.00 to 7.00 | > 7.00 | COCCn1ccc(-c2cc(NCc3ccc(Cl)s3)n(C(=O)c3ccsc3)n2)cc1=O [Entry 23, 4-(5-[(5-chlorothiophen-2-yl)methyl]amino-1-(thiophene-3-carbonyl)-1H-pyrazol-3-yl)-1-(2-methoxyethyl)-1,2-dihydropyridin-2-one] |  | 
< 4.00 | < 4.00 | O=c1[nH]cc(-c2cc(NCc3ccc(Cl)s3)[nH]n2)cc1Br [Entry 6, 3-bromo-5-(5-[(5-chlorothiophen-2-yl)methyl]amino-1H-pyrazol-3-yl)-1,2-dihydropyridin-2-one] |  | 
6.00 to 7.00 | 6.00 to 7.00 | COc1ccccc1C(=O)n1nc(-c2cc(-c3cccnc3)c[nH]c2=O)cc1NCc1ccc(Cl)s1 [Entry 3, 3-(5-[(5-chlorothiophen-2-yl)methyl]amino-1-(2-methoxybenzoyl)-1H-pyrazol-3-yl)-5-(pyridin-3-yl)-1,2-dihydropyridin-2-one] |  | 
5.00 to 6.00 | > 7.00 | CC(C)(C)C(=O)n1nc(-c2cc(Br)cn(CC(=O)N3CCOCC3)c2=O)cc1NCc1ccc(Cl)s1 [Entry 40, 5-bromo-3-(5-[(5-chlorothiophen-2-yl)methyl]amino-1-(2,2-dimethylpropanoyl)-1H-pyrazol-3-yl)-1-[2-(morpholin-4-yl)-2-oxoethyl]-1,2-dihydropyridin-2-one] |  | 
5.00 to 6.00 | > 7.00 | COCCn1ccc(-c2cc(NCc3ccc(Cl)s3)n(C(=O)c3ccoc3)n2)cc1=O [Entry 17, 4-(5-[(5-chlorothiophen-2-yl)methyl]amino-1-(furan-3-carbonyl)-1H-pyrazol-3-yl)-1-(2-methoxyethyl)-1,2-dihydropyridin-2-one] |  | 
< 4.00 | < 4.00 | O=c1cc(-c2cc(NCc3ccc(Cl)s3)[nH]n2)cc[nH]1 [Entry 29, 4-(5-[(5-chlorothiophen-2-yl)methyl]amino-1H-pyrazol-3-yl)-1,2-dihydropyridin-2-one] |  | 
4.00 to 5.00 | > 7.00 | C=Cc1ccc(-c2cc(NCc3ccc(Cl)s3)n(C(=O)C(C)(C)C)n2)[nH]c1=O [Entry 46, 6-(5-[(5-chlorothiophen-2-yl)methyl]amino-1-(2,2-dimethylpropanoyl)-1H-pyrazol-3-yl)-3-ethenyl-1,2-dihydropyridin-2-one] |  | 
 |  | CCCCCCOC(=O)N=C(N)c1ccc(NCc2nc3cc(C(=O)N(CCC(=O)OCC)c4ccccn4)ccc3n2C)cc1 [dabigatran etexilate] | 50 | 50-60%
< 4.00 | < 4.00 | O=c1cc(-c2cc(NCc3ccc(Cl)s3)[nH]n2)ccn1Cc1cccnc1 [Entry 30, 4-(5-[(5-chlorothiophen-2-yl)methyl]amino-1H-pyrazol-3-yl)-1-(pyridin-3-ylmethyl)-1,2-dihydropyridin-2-one] |  | 
5.00 to 6.00 | > 7.00 | CC(C)(C)C(=O)n1nc(-c2cc(N3CCOCC3)c[nH]c2=O)cc1NCc1ccc(Cl)s1 [Entry 1, 3-(5-[(5-chlorothiophen-2-yl)methyl]amino-1-(2,2-dimethylpropanoyl)-1H-pyrazol-3-yl)-5-(morpholin-4-yl)-1,2-dihydropyridin-2-one] |  | 
4.00 to 5.00 | 6.00 to 7.00 | O=C(c1ccoc1)n1nc(-c2ccc(Br)c(=O)[nH]2)cc1NCc1ccc(Cl)s1 [Entry 7, 3-bromo-6-(5-[(5-chlorothiophen-2-yl)methyl]amino-1-(furan-3-carbonyl)-1H-pyrazol-3-yl)-1,2-dihydropyridin-2-one] |  | 
4.00 to 5.00 | > 7.00 | CC(C)(C)C(=O)n1nc(-c2cc(Br)c[nH]c2=O)cc1NCc1ccc(Cl)s1 [Entry 39, 5-bromo-3-(5-[(5-chlorothiophen-2-yl)methyl]amino-1-(2,2-dimethylpropanoyl)-1H-pyrazol-3-yl)-1,2-dihydropyridin-2-one] |  | 
> 7.00 | > 7.00 | O=C(c1ccsc1)n1nc(-c2ccn(Cc3cccnc3)c(=O)c2)cc1NCc1ccc(Cl)s1 [Entry 25, 4-(5-[(5-chlorothiophen-2-yl)methyl]amino-1-(thiophene-3-carbonyl)-1H-pyrazol-3-yl)-1-(pyridin-3-ylmethyl)-1,2-dihydropyridin-2-one] |  | 
